Experiments:
Format in all cases: biochemical
protein kinase C (PKC) = test: Protein kinase C assay; settings: for activity in the protein kinase C assay: in words
Protocol: Inhibitor activity against protein kinase C (PKC) was determined using PKC obtained from Sigma Chemical Company (Poole, UK) and a commercially available assay system (Amersham International plc, Little Chalfont, UK). Briefly, PKC catalyses the transfer of the γ-phosphate (^32 p) of ATP to the threonine group on a peptide specific for PKC. Phosphorylated peptide is bound to phosphocellulose paper, subsequently quantified by scintillation counting and IC50 values determined as before.

remaining kinases = test: Selectivity over the remaining kinases described (p56^lck, p59^fyn, EGFr, ZAP-70, Csk, protein kinase C assays)
Protocol: (§1) All assays were performed in 20 mM HEPES pH 7.5 containing 10 mM MgCl2, 10 mM MnCl2, 0.05% Brij, 1 μM ATP (0.5 μCi[γ-^33 P]ATP) and 0.8 mg/ml RR-src. […] After incubation at 30° C. for 15 min, the reaction was terminated by the addition of one-third volume of stop reagent (0.25 mM EDTA and 33 mM ATP in dH2 O). A 15 μl aliquot was removed, spotted onto a P-30 filtermat (Wallac, Milton Keynes, UK), and washed sequentially with 1% acetic acid and dH2 O to remove ATP. The bound ^33 P-RR-src was quantitated by scintillation counting of the filtermat in a Betaplate scintillation counter (Wallac, Milton Keynes, UK) after addition of Meltilex scintillant (Wallac, Milton Keynes, UK). The dpm obtained, being directly proportional to the amount of ^33 P-RR-src produced by p56^lck, were used to determine the IC50 for each compound.
IC50 values for each test inhibitor were determined as described previously in the p56^lck assay.
(§2) The tyrosine kinase activity of ZAP-70 was determined using a capture assay based on that employed above for p56^lck. The RR-src peptide was replaced with polyGlu-Tyr (Sigma; Poole, UK) at a final concentration of 17 μg/ml. After addition of the stopped reaction to the filtermat, trichloroacetic acid 10% (w/v) was employed as the wash reagent instead of acetic acid and a final wash in absolute ethanol was also performed before scintillation counting. IC50 values for each test inhibitor were determined as described above in the p56^lck assay.
Inhibitor activity against protein kinase C (PKC) was determined using PKC obtained from Sigma Chemical Company (Poole, UK) and a commercially available assay system (Amersham International plc, Little Chalfont, UK). Briefly, PKC catalyses the transfer of the γ-phosphate (^32 p) of ATP to the threonine group on a peptide specific for PKC.
Phosphorylated peptide is bound to phosphocellulose paper, subsequently quantified by scintillation counting and IC50 values determined as before.

ZAP-70 = target: T1, ZAP-70 (Homo sapiens, UniProt P43403); test: ZAP-70 kinase assay; settings: polyGlu-Tyr 17 μg/ml
T1 sequence (P43403 1-619): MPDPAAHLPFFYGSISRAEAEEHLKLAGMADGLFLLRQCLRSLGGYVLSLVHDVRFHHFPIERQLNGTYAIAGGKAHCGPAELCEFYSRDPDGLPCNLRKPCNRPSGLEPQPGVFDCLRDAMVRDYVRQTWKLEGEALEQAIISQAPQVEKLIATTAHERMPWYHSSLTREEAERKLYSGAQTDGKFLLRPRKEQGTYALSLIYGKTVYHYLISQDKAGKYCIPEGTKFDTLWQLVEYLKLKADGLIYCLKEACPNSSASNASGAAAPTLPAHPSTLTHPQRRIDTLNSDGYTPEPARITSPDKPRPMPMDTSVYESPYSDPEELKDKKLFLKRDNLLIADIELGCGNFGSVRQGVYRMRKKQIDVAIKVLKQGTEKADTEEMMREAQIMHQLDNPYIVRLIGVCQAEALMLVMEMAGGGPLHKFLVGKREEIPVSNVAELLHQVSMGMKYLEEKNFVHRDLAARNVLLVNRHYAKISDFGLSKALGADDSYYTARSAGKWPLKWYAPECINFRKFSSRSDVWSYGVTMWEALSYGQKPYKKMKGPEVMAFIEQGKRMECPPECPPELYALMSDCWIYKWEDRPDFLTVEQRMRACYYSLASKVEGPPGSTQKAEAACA
Protocol: as §2

human p56^lck = human p56^lck (Homo sapiens, UniProt P06239); test: p56^lck kinase assay; settings: 1 μM ATP, RR-src, pH 7.5, 30° C., 15 min
Sequence of human p56^lck (P06239 whole entry): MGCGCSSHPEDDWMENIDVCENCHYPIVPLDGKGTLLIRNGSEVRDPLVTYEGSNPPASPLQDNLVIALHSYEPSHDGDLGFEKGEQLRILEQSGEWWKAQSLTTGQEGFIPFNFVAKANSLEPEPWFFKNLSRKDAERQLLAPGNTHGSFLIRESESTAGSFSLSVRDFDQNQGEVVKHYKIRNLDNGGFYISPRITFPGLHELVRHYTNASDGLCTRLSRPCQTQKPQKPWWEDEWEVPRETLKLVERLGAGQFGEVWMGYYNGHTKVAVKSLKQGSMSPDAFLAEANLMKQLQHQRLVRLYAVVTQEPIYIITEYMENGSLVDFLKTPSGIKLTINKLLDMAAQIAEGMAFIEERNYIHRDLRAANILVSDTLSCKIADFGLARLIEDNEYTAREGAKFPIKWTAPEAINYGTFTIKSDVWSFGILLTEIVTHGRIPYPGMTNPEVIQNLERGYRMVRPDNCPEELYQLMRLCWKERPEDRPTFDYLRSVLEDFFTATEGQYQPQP
Protocol: The tyrosine kinase activity of p56^lck was determined using a RR-src peptide (RRLIEDNEYTARG) and [γ-^33 P]ATP as substrates. Quantitation of the ^33 P-phosphorylated peptide formed by the action of p56^lck was achieved using an adaption of the method of Geissler et al (J. Biol. Chem. (1990) 265, 22255-22261).
as §1

human p59^fyn = test: p59^fyn kinase assay; settings: in words
Protocol: Compounds of the invention were assayed for p59^fyn inhibitory activity in a similar manner to the p56^lck assay, using human p59^fyn.

[1] = relative to protein kinase C, remaining = other than protein kinase C
[2] = relative to ZAP-70, remaining = other than ZAP-70 and protein kinase C
[3] = relative to p56^lck, remaining = other than p56^lck and p59^fyn

## COc1cc(Nc2nccc(-c3cccc(OCCCN)c3)n2)cc(OC)c1OC.Cl.Cl [Example 48, 4-(3-(3-Aminopropoxy)phenyl)-N-(3,4,5-trimethoxyphenyl)-2-pyrimidineamine dihydrochloride]
Protein kinase C (PKC)
  IC50: 22 nM
Remaining kinases; [1]
  IC50 values at least 10× greater against the remaining kinases: at least 10 ×

## COc1cc(Nc2nccc(-c3ccc(NCCN)nc3)n2)cc(OC)c1OC [Example 64, 4-(2-(2-Aminoethylamino)pyridin-5-yl)-N-(3,4,5-trimethoxyphenyl)-2-pyrimidineamine]
ZAP-70
  IC50: 124 nM
Protein kinase C (PKC)
  activity in the protein kinase C assay: active
Remaining kinases; [2]
  IC50 values at least 10× greater against the remaining kinases: at least 10 ×

## COc1cc(Nc2nccc(-c3ccc(NCCCN)nc3)n2)cc(OC)c1OC [Example 66, 4-(2-(3-Aminopropylamino)pyridin-5-yl)-N-(3,4,5-trimethoxyphenyl)-2-pyrimidineamine]
ZAP-70
  IC50: 68 nM
Protein kinase C (PKC)
  activity in the protein kinase C assay: active
Remaining kinases; [2]
  IC50 values at least 10× greater against the remaining kinases: at least 10 ×

## COc1cc(Nc2nccc(-c3ccc(NCCC4CCCN4C)nc3)n2)cc(OC)c1OC (stereo not shown) [Example 81, 4-(2-(2-(1-Methylpyrrolidin-2-yl)ethylamino)pyridin-5-yl)-N-(3,4,5-trimethoxyphenyl)-2-pyrimidineamine]
Protein kinase C (PKC)
  IC50: 92 nM
Remaining kinases; [1]
  IC50 values at least 10× greater against the remaining kinases: at least 10 ×

## COc1ccc(Nc2ccnc(Nc3cc(OC)c(OC)c(OC)c3)n2)cc1OC [Example 96, N4-(3,4-Dimethoxyphenyl)-N2-(3,4,5-trimethoxyphenyl)-2,4-pyrimidinediamine]
Human p56^lck
  IC50: 215 nM
Human p59^fyn
  activity against p59^fyn: active
Remaining kinases; [3]
  IC50 values at least 10× greater against the remaining kinases: at least 10 ×

## CCOC(=O)Cc1ccc(Nc2ccnc(Nc3cc(OC)c(OC)c(OC)c3)n2)cc1 [Example 103, N4-(4-(Ethoxycarbonylmethyl)phenyl)-N2-(3,4,5-trimethoxyphenyl)-2,4-pyrimidinediamine]
Human p56^lck
  IC50: 40 nM
Human p59^fyn
  activity against p59^fyn: active
Remaining kinases; [3]
  IC50 values at least 10× greater against the remaining kinases: at least 10 ×

— patent publication US5958935A, “Substituted 2-anilinopyrimidines useful as protein kinase inhibitors” (Celltech Therapeutics Limited, priority 1995, dated 1999)
